Reference: US10005774B2, “Syk inhibitors” (Gilead Sciences, Inc., priority 2013, dated 2018)

biological target: Syk (Homo sapiens, UniProt P43405); experiment: High Throughput Syk Biochemical Assay (KinEASE TR-FRET); conditions: TABLE D, 20 μM ATP, 1 μM biotinylated peptide, 0.015 nM Syk, 30 min at room temperature, read-out: IC50
Procedure: High Throughput Syk Biochemical Assay
Syk activity was measured using KinEASE (Cisbio), a time-resolved fluorescence resonance energy transfer (TR-FRET) immunoassay. In this assay. Syk-catalyzes the phosporylation of a XL665-labeled peptide substrate. Europium conjugated phospho-tyrosine specific antibody binds the resulting phosphorylated peptide. Formation of phosphorylated peptide is quantified by TR-FRET with Europium as the donor and XL665 the acceptor in a 2-step endpoint assay. In brief, test compounds serially diluted in DMSO were delivered into Corning white, low volume, non-binding 384 well plates using the Echo 550 acoustic liquid dispenser (Labcyte®). Syk enzyme and substrates were dispensed into assay plates using a Multi-Flo (Bio-Tek Instruments). […] Percent inhibition was calculated as follows: % Inhibition=100×(RatioSample−Ratio0% Inhibition)/(Ratio100% Inhibition−Ratio0% Inhibition)

| IC50 [nM] | Structure (SMILES) |
| --- | --- |
| 102 | C[C@@H](Oc1nc(-c2cccc(N3CCOCC3)c2)cc2ncn(C)c12)[C@H]1CNC(=O)C1 [(R)-4-((R)-1-(3-methyl-6-(3-morpholinophenyl)-3H-imidazo[4,5-c]pyridin-4-yloxy)ethyl)pyrrolidin-2-one] |
| 4.15 | CC(C)n1cc(-c2cc(O[C@H](C)[C@H]3CNC(=O)C3)c3ccnn3c2)cn1 [(R)-4-((R)-1-(6-(1-isopropyl-1H-pyrazol-4-yl)pyrazolo[1,5-a]pyridin-4-yloxy)ethyl)pyrrolidin-2-one] |

same assay, conditions: table 'ALL NEW COMPOUNDS IN 2014', 20 μM ATP, 1 μM biotinylated peptide, 0.015 nM Syk, 30 min at room temperature, read-out: Syk IC50

| IC50 [nM] | Structure (SMILES) |
| --- | --- |
| 4.76 | C[C@@H](Oc1cc(-c2ccc3c(n2)NCCO3)cc2ncn(C3CC3)c12)[C@H]1CNC(=O)C1 [(R)-4-((R)-1-((1-cyclopropyl-5-(3,4-dihydro-2H-pyrido[3,2-b][1,4]oxazin-6-yl)-1H-benzo[d]imidazol-7-yl)oxy)ethyl)pyrrolidin-2-one] |
| 1.73 | C[C@@H](Oc1cc(-c2cnn(CC(C)(C)O)c2)cc2ncn(C3CC3)c12)[C@H]1CNC(=O)C1 [(R)-4-((R)-1-((1-cyclopropyl-5-(1-(2-hydroxy-2-methylpropyl)-1H-pyrazol-4-yl)-1H-benzo[d]imidazol-7-yl)oxy)ethyl)pyrrolidin-2-one] |
| 6.07 | Cc1nc(-c2cc(O[C@H](C)[C@H]3CNC(=O)C3)c3c(c2)ncn3C2CC2)cn1C [(R)-4-((R)-1-((1-cyclopropyl-5-(1,2-dimethyl-1H-imidazol-4-yl)-1H-benzo[d]imidazol-7-yl)oxy)ethyl)pyrrolidin-2-one] |
| 8.52 | C[C@@H](Oc1nc(-c2ccc(C3(O)CC3)cc2)cc2ncn(C3CC3)c12)[C@H]1CNC(=O)C1 |
| 1.12 | CC(C)S(=O)(=O)N1CCN(c2ccc(-c3cc4ncn(C5CC5)c4c(O[C@H](C)[C@H]4CNC(=O)C4)n3)cc2)CC1 [(R)-4-((R)-1-((3-cyclopropyl-6-(4-(4-(isopropylsulfonyl)piperazin-1-yl)phenyl)-3H-imidazo[4,5-c]pyridin-4-yl)oxy)ethyl)pyrrolidin-2-one] |
| 2.76 | C[C@@H](Oc1cc(-c2ccc(N3CCN(C4COC4)CC3)cc2F)cc2ncn(C3CC3)c12)[C@H]1CNC(=O)C1 [(R)-4-((R)-1-((1-cyclopropyl-5-(2-fluoro-4-(4-(oxetan-3-yl)piperazin-1-yl)phenyl)-1H-benzo[d]imidazol-7-yl)oxy)ethyl)pyrrolidin-2-one] |
| 135 | C[C@@H](Oc1nc(-c2ccc(N3CCN(C4COC4)CC3)cc2)cc2ncn(CCO)c12)[C@H]1CNC(=O)C1 [(R)-4-((R)-1-((3-(2-hydroxyethyl)-6-(4-(4-(oxetan-3-yl)piperazin-1-yl)phenyl)-3H-imidazo[4,5-c]pyridin-4-yl)oxy)ethyl)pyrrolidin-2-one] |
| 9.65 | C[C@@H](Oc1nc(-c2cnn(CC(C)(C)O)c2)cc2ncn(C3CC3)c12)[C@H]1CNC(=O)C1 |
| 20.9 | Cc1ncc(-c2cc(O[C@H](C)[C@H]3CNC(=O)C3)c3c(c2)ncn3C2CC2)[nH]1 |
| 8.44 | C[C@@H](Oc1nc(-c2ccnc(C3C=NN=C3)c2)cc2ncn(C3CC3)c12)[C@H]1CNC(=O)C1 [(R)-4-((R)-1-((6-(2-(1H-pyrazol-4-yl)pyridin-4-yl)-3-cyclopropyl-3H-imidazo[4,5-c]pyridin-4-yl)oxy)ethyl)pyrrolidin-2-one] |
| 1.31 | C[C@@H](Oc1nc(-c2ccc(N3CCN(S(=O)(=O)C4COC4)CC3)cc2)cc2ncn(C3CC3)c12)[C@H]1CNC(=O)C1 [(R)-4-((R)-1-((3-cyclopropyl-6-(4-(4-(oxetan-3-ylsulfonyl)piperazin-1-yl)phenyl)-3H-imidazo[4,5-c]pyridin-4-yl)oxy)ethyl)pyrrolidin-2-one] |
| 2.5 | C[C@@H](Oc1nc(-c2ccc3c(c2)N(C)C(=O)OC3(C)C)cc2ncn(C)c12)[C@H]1CNC(=O)C1 [1,4,4-trimethyl-7-(3-methyl-4-((R)-1-((R)-5-oxopyrrolidin-3-yl)ethoxy)-3H-imidazo[4,5-c]pyridin-6-yl)-1H-benzo[d][1,3]oxazin-2(4H)-one] |
